# Source: ChEMBL document CHEMBL1137703, “Predictive QSAR modeling of HIV reverse transcriptase inhibitor TIBO derivatives” (Eur J Med Chem, 2009)
# Biological target: Human immunodeficiency virus type 1 reverse transcriptase (Human immunodeficiency virus 1, UniProt Q72547)
# Experiment: Inhibition of HIV1 reverse transcriptase
# Settings: not given
row,log(1/IC50),SMILES
1,5.61,CCCN1CCn2c(=S)[nH]c3cccc(c32)C1C (configuration not stated)
2,4.22,CCCN1Cc2cccc3[nH]c(=O)n(c23)CC1C (configuration not stated)
3,5.66,CC1CN(CC2CC2)Cc2cc(Cl)cc3[nH]c(=S)n1c23 (configuration not stated)
4,5.78,CCCN1Cc2cccc3[nH]c(=S)n(c23)CC1C (configuration not stated)

# Same assay, conditions: read-out: log(1/IC50) (converted)
row,SMILES,IC50 [µM]
1,CCCN1Cc2cccc3[nH]c(=O)n(c23)C(C(C)C)C1 (configuration not stated),74.1
2,CCCN1CCn2c(=O)[nH]c3cccc(c32)C1C (configuration not stated),83.2
3,C[C@H]1Cn2c(=O)[nH]c3cc(N)cc(c32)CN1CC1CC1,60.5
4,S=c1[nH]c2cccc3c2n1C(Cc1ccccc1)C(Cc1ccccc1)N(CC1CC1)C3 (configuration not stated),10
5,C[C@H]1Cn2c(=O)[nH]c3cc(N(C)C)cc(c32)CN1CC1CC1,6.65
6,C[C@H]1Cn2c(=O)[nH]c3cc([N+](=O)[O-])cc(c32)CN1CC1CC1,33.4
7,CCCN1Cc2cc(Cl)cc3[nH]c(=S)n(c23)C(=O)C1C (configuration not stated),50.1
8,C[C@H]1Cn2c(=O)[nH]c3ccc(N(C)C)c(c32)CN1CC1CC1,6.65
9,S=c1[nH]c2cc(Cl)cc3c2n1CCN1CCCCC31 (configuration not stated),2
10,C=CCN1Cc2cccc3[nH]c(=O)n(c23)C[C@@H]1C,70.1
11,C=C(C)N1Cc2cccc3[nH]c(=O)n(c23)C(C)C1 (configuration not stated),32.4
12,C=C(C)N1Cc2cccc3[nH]c(=O)n(c23)CC1(C)C,22.9
13,COc1ccc2c3c1[nH]c(=O)n3C[C@H](C)N(C=C(C)C)C2,6.61
14,CC(C)=CN1[C@@H](C)Cn2c(=O)[nH]c3cc(Cl)cc(c32)[C@@H]1C,5.01
15,C/C=C1/C[C@H]2Cn3c(=S)[nH]c4cc(Cl)cc(c43)CN2C1,3.8
16,CC(C)=CN1Cc2cc(Cl)cc3[nH]c(=O)n(c23)C[C@@H]1C,0.182
17,C[C@H]1Cn2c(=S)[nH]c3cc(Cl)cc(c32)CN1CC1CC1,0.0339
18,CC(C)=CN1[C@H](C)Cn2c(=O)[nH]c3cc(Cl)cc(c32)[C@H]1C,0.229
19,CC(C)=CN1[C@H](C)Cn2c(=S)[nH]c3cc(Cl)cc(c32)[C@H]1C,0.479
20,C=C(C)N1Cc2cccc3[nH]c(=O)n(c23)C(CCC)C1 (configuration not stated),47.9
21,CC(C)=CN1CCn2c(=S)[nH]c3cc(Cl)cc(c32)C1,0.162

row,SMILES,IC50 [µM]
1,CC(C)=CN1CCn2c(=O)[nH]c3cc(Cl)cc(c32)C1C (configuration not stated),0.162
2,C=C(C)N1Cc2cccc3[nH]c(=O)n(c23)CC1CC (configuration not stated),50.1
3,C=C(C)N1Cc2cccc3[nH]c(=O)n(c23)CC1C(C)C (configuration not stated),10
4,CC(C)=CN1Cc2cccc3[nH]c(=O)n(c23)CC1C(C)C (configuration not stated),10
5,C=C(C)N1Cc2cc(Cl)cc3[nH]c(=S)n(c23)C(C)C1 (configuration not stated),0.676
6,CC(C)=CN1CCn2c(=S)[nH]c3cc(Cl)cc(c32)C1C (configuration not stated),0.0229
7,C=C(C)N1Cc2cccc3[nH]c(=S)n(c23)C[C@@H]1C,0.0263
8,CC(C)=CN1CCn2c(=O)[nH]c3cccc(c32)C1,12.6
9,C=C(C)N1Cc2cccc3[nH]c(=O)n(c23)CC1C (configuration not stated),34.7
10,C[C@H]1Cn2c(=S)[nH]c3cccc(c32)CN1CC1CC1,0.0603
11,C=C(C)N1CCn2c(=O)[nH]c3cccc(c32)C1,46.8
12,C=C(CC)N1CCn2c(=O)[nH]c3cccc(c32)C1,37.2
13,C=C(C)N1Cc2cccc3[nH]c(=O)n(c23)C(C(C)C)C1 (configuration not stated),12.6
14,CC(C)=CN1CCn2c(=O)[nH]c3ccc(Cl)c(c32)C1C (configuration not stated),0.145
15,CCCN1CCn2c(=O)[nH]c3cccc(c32)C1,89.1
16,CC(C)=CN1CCn2c(=O)[nH]c3cccc(c32)C1C (configuration not stated),12
17,C[C@H]1Cn2c(=S)[nH]c3cc([N+](=O)[O-])cc(c32)CN1CC1CC1,2.45
18,CC(C)=CN1Cc2cccc3[nH]c(=S)n(c23)[C@@H](C)[C@@H]1C (relative stereo),14.5
19,CC(C)=CN1Cc2cccc3[nH]c(=O)n(c23)[C@@H](C)[C@H]1C (relative stereo),56.2
20,CC(C)=CN1Cc2cccc3[nH]c(=S)n(c23)[C@@H](C)[C@H]1C (relative stereo),2.24
21,C[C@H]1[C@H](C)n2c(=S)[nH]c3cccc(c32)CN1CC1CC1 (relative stereo),13.5

# Results, then the compound that gave them:
row,IC50 [µM],SMILES
1,3.31,CC(C)=CN1Cc2cccc3[nH]c(=O)n(c23)C[C@@H]1C
2,0.012,CC(C)=CN1CCn2c(=S)[nH]c3ccc(Cl)c(c32)C1C (configuration not stated)
3,0.0295,C#Cc1ccc2[nH]c(=S)n3c2c1CN(C=C(C)C)[C@@H](C)C3
4,0.0871,CC(C)=CN1Cc2c(I)ccc3[nH]c(=O)n(c23)C[C@@H]1C
5,0.437,C#Cc1ccc2[nH]c(=O)n3c2c1CN(C=C(C)C)[C@@H](C)C3
6,1.07,CC(C)=CN1Cc2ccc(Br)c3[nH]c(=S)n(c23)C[C@@H]1C
7,0.0959,CCOc1ccc2[nH]c(=S)n3c2c1CN(C=C(C)C)[C@@H](C)C3
8,6.35,CC(C)=CN1Cc2c(C(N)=O)ccc3[nH]c(=O)n(c23)C[C@@H]1C
9,1.15,CC(C)=CN1Cc2c(C#N)ccc3[nH]c(=O)n(c23)C[C@@H]1C
10,4.68,COc1ccc2c3c1[nH]c(=S)n3C[C@H](C)N(C=C(C)C)C2
11,0.0474,CC(C)=CN1Cc2c(Br)ccc3[nH]c(=O)n(c23)C[C@@H]1C
12,0.034,COc1ccc2[nH]c(=S)n3c2c1CN(C=C(C)C)[C@@H](C)C3
13,0.0977,CC(C)=CN1Cc2cccc3[nH]c(=S)n(c23)CC1C (configuration not stated)
14,0.0442,CC(C)=CN1Cc2cccc3[nH]c(=S)n(c23)C[C@@H]1C
15,0.00301,CC(C)=CN1Cc2c(Br)ccc3[nH]c(=S)n(c23)C[C@@H]1C
16,1,CC(C)=CN1Cc2c(C)ccc3[nH]c(=O)n(c23)C[C@@H]1C

row,IC50 [µM],SMILES
1,0.0427,CC(C)=CN1Cc2cc(Cl)cc3[nH]c(=S)n(c23)C[C@@H]1C
2,0.0136,CC(C)=CN1Cc2c(C)ccc3[nH]c(=S)n(c23)C[C@@H]1C
3,0.0479,CC(C)=CN1Cc2c(I)ccc3[nH]c(=S)n(c23)C[C@@H]1C
4,0.00582,CC(C)=CN1Cc2c(F)ccc3[nH]c(=S)n(c23)C[C@@H]1C
5,0.0256,CC(C)=CN1Cc2cc(Cl)c(Cl)c3[nH]c(=S)n(c23)C[C@@H]1C
6,0.0776,CC(C)=CN1CCn2c(=S)[nH]c3cccc(c32)C1C (configuration not stated)
7,0.00501,CC(C)=CN1Cc2c(Cl)ccc3[nH]c(=S)n(c23)C[C@@H]1C
8,0.0562,CC(C)=CN1Cc2c(C#N)ccc3[nH]c(=S)n(c23)C[C@@H]1C
9,0.025,CC(C)=CN1Cc2cc(F)cc3[nH]c(=S)n(c23)C[C@@H]1C
10,0.005,CSc1ccc2[nH]c(=S)n3c2c1CN(C=C(C)C)[C@@H](C)C3
11,0.186,CC(C)=CN1Cc2c(C=O)ccc3[nH]c(=S)n(c23)C[C@@H]1C
12,0.0457,CC(C)=CN1CCn2c(=S)[nH]c3ccc(Cl)c(c32)C1
13,25.7,CC(C)=CN1C[C@H](C)n2c(=S)[nH]c3cccc(c32)[C@H]1C (relative stereo)
14,1.15,CC(C)=CN1[C@H](C)c2cccc3[nH]c(=S)n(c23)C[C@@H]1C (relative stereo)
15,0.0417,CC(C)=CN1[C@@H](C)Cn2c(=S)[nH]c3cccc(c32)[C@@H]1C (relative stereo)
